# Earlier results as cited in patent US20040009537A1, “Methods of modulating and of identifying agents that modulate intracellular calcium” (priority 2002, published 2004).
# Test system: HeLa cells
# Conditions: HeLa cells treated with histamine; decrease from about 60-400 μM
smiles,measurement,value
NCCc1c[nH]cn1 [histamine],ER free calcium,1 to 50 µM
